Assay results as given in patent publication US10493046B2, “5-hydroxytryptamine 1B receptor-stimulating agent for use as a promoter of satellite cells self-renewal and/or differentiation” (INSTITUT PASTEUR, priority 2015, dated 2019).

Experiments:
Type in all cases: in vivo, mouse
Tibialis anterior = assay: Muscle regeneration after notexin injury of tibialis anterior
Experimental: Animals were anesthetized with ketamine (Imalgene1000 100 mg/Kg Merial) and Xylazine (Rompun2% 20 mg/Kg Bayer) prior to injury. Animals were hydrated and treated with analgesic (Buprenorphin Axience 0.3 mg/kg) twice a day for 4 d following injury. For the injury, mice were anesthetized as previously described and 10 μl of 12.5 μg/ml Notexin (Lotaxan) was injected in the Tibialis anterior. All protocols were reviewed by the Institut Pasteur, the competent authority, for compliance with the French and European regulations on Animal Welfare and with Public Health Service recommendations. This project has been reviewed and approved (#2013-0044) by the Institut Pasteur ethic committee (C2EA 89-CETEA).
(§1) Tibialis anterior (TA) was carefully dissected and snap frozen in liquid-nitrogen-cooled isopentane for a few minutes and stored at −80° C. prior to cryosectioning (10 μm sections). Sections were kept at room temperature overnight before staining. Sections were then rehydrated in PBS for 10 minutes and fixed in 10% formalin for 3 minutes. The sections were then routinely stained with haematoxylin and eosin (HE) using an automated stain machine or manually with red sirius.
(§2) Immunostaining was performed on cryosections fixed with 4% paraformaldehyde (PFA EMS#15710) in cold PBS, permeabilized with 0.5% Triton X-100 20 min at room temperature, washed, and blocked with 10% BSA for 30 min. Sections were incubated with primary antibodies overnight at 4° C. (see Table 1 below) and with Alexa-conjugated secondary antibodies 1/250 and Hoechst for 45 minutes. Sections were then analysed using an automated axioscan (Zeiss) or inverted Observer.Z1 Apotome (Zeiss). For apoptosis assessment, cells were collected in 2% serum, spun on polyD-lysine (Sigma-Aldrich#P6407), and immediately fixed with PFA 4%.
For image analysis (fibrosis quantification), ImageJ 1.46r software was using between 10 different photos randomly taken per section and 3 sections minimum per experimental group. The pictures were converted in a binary image and the pixel values then collected. For fibre size, the sections were immunostained with rabbit anti Laminin (Sigma-Aldrich #L9393) diluted at 1/200, overnight at 4° C. Secondary Donkey ant Rabbit 488 (DL488 JacksonImmuno #711486152) were used at 1/200 45 minutes at room temperature. The fibre perimeter was done automatically by using Pixcavator® software.

Mdx mice = Mdx mice (Duchenne muscular dystrophy model), muscle histology
Experimental: as §1, §2
The fiber size was also overall bigger in Mdx treated-animals (4.241±0.9 pixels in treated vs. 3.192±0.3 in placebo p=0.051) (FIG. 8b). […] The number of vessels increased in the treated mice (1459±327 vessels per mm^2) when compared to the placebo (942.4±113 vessels […], p=0.008) (FIG. 8e). […] This observation is in line with the decreased infiltration of inflammatory cells observed in the muscle (9.6±3.7 Gr1+ cells observed per section in the placebo vs. 4±2.4 Gr1+ cells in the treated mice p=0.04) (FIG. 8i).

vessels = assay: Vessel number in tibialis anterior of treated mice (Flk1GFP/+ or CD31 immunostaining)
Experimental: as §2
Throughout the study, focus was made on the tibialis anterior (TA). In skeletal muscle, SC are central for muscle repair. […] SC are localized close to capillaries and angiogenesis is known to be crucial for muscle repair SC survival with cellular interplays between vessel cells and SC. The number of vessels was therefore quantified. In control Flk1^GFP/+ mouse (placebo), the number of vessels was of 870±213.1 vessels per mm^2 and increased after 3 weeks of I.P treatment (1103±110.2 vessels per mm^2), and even more after 6 weeks (1384±175.3 vessels per mm^2, p=0.008) (FIG. 2e). Neovessels presented with normal histological appearance associating a basal lamina and a permeable lumen sometimes containing red blood cells. […] 841±137 CD31+ cells per mm^2 were counted in the placebo-treated mice vs. 2260±361 CD31+ cells per mm^2 in the fluoxetine-treated mice, p=0.008 (FIG. 2t-v), confirming the previous observation.
In order to investigate the effect of vortioxetine on vessels number, intra peritoneal (I.P) administration of 20 mg/kg of vortioxetine was performed for either 12 days, 3 or 6 weeks to C57Bl/6 mice (FIG. 10a). The number of CD31+ cells was counted by immunostaining. The number of vessels in the placebo is (863.5±115.6 vessels per mm^2) and increases after 12 days of I.P treatment (2274±926 vessels per mm^2, p=0.03), and even more after 3 weeks (2847±705 vessels per mm^2, p=0.02) (FIG. 10b). However, there was no statistically significant differences between 12 days and 3 weeks of treatment (p=0.49). Neovessels display a normal histological appearance associated with a basal lamina and a permeable lumen sometimes containing red blood cells. The daily administration of vortioxetine IP might cause unwanted peritoneal inflammation that could interfere with angiogenesis since inflammation and neovascularization are intertwined in some models. Vortioxetine was therefore administered per os (P.O) for 12 days: a similar increase in the number of vessels was observed (2451±595 vessels per mm^2 p=0.028, FIG. 10c). To further confirm those results, vortioxetine will be administered to Flk1^GFP/+ mice P.O and I.P for 12 days, and an ex vivo Matrigel angiogenesis assay and plasma from vortioxetine treated mice will be used on HUVEC (endothelial cells).

[1] = notexin injury after fluoxetine treatment
[2] = fluoxetine P.O. 6 weeks, Mdx mice

Compound: COc1ccc(NC(=O)c2ccc(-c3ccc(-c4noc(C)n4)cc3C)cc2)cc1N1CCN(C)CC1 [GR127935]
- Effect of the antagonist on the beneficial effects of fluoxetine after injury (Tibialis anterior; antagonist together with fluoxetine, SC, differentiating cells, fiber size, calcium deposits, fibrosis, Gr1 and F4/80 cells): suppressed the beneficial effects of fluoxetine treatment
- Effect of GR127935 on the beneficial effects of vortioxetine after injury (Tibialis anterior; vortioxetine 12 days-treatment plus GR127935, SC, differentiating cells, fiber size, calcium deposits, fibrosis, Gr1 and F4/80 cells): repressed the beneficial effects of the vortioxetine 12 days-treatment
- Beneficial effects of fluoxetine when co-treated with 5-HT1B inhibitor (Mdx mice; Mdx mice treated with fluoxetine and a 5-HT1B inhibitor): the beneficial effects were lost
- Number of vessels (vessels; GR127935 in osmotic pump together with fluoxetine P.O 6 weeks, Flk1GFP/+ mice): 1028±173 vessels per mm^2

Compound: CNCCC(Oc1ccc(C(F)(F)F)cc1)c1ccccc1 (centres unmarked) [fluoxetine]
- Calcium deposits 14 days post-injury (Tibialis anterior; [1]): 3.2±3 per mm^2
- Differentiating (Myogenin+) cells 4 days post-injury vs placebo (Tibialis anterior; [1]): more cells were already differentiating
- Endomysial fibrosis 14 days post-injury (Tibialis anterior; [1]): 2.2±0.7 % of total muscle area
- F4/80 inflammatory cells 14 days post-injury (Tibialis anterior; [1]): 4.7±2.7 cells per section
- Gr1+ inflammatory cells 14 days post-injury (Tibialis anterior; [1]): 4.1±2.6 cells per section
- Number of fibers 14 days post-injury vs placebo (Tibialis anterior; [1]): remained the same
- Regenerating fiber size 14 days post-injury (Tibialis anterior; [1]): 129±12.6 μm^2
- Number of SC 4 days post-injury (Tibialis anterior; notexin injury after fluoxetine treatment, Tg:Pax7nGFP mice): 459±283 per mm^2
- Number of vessels 28 days post-injury vs placebo (Tibialis anterior; notexin injury after fluoxetine treatment, p=0.036): higher
- Number of SC 28 days post-injury vs placebo (Tibialis anterior; notexin injury after fluoxetine treatment, p=0.076): higher
- Number of SC per TA after 3 rounds of injury (Tibialis anterior; several rounds of injury after fluoxetine treatment): remained constant
- Fiber size (Mdx mice; [2]): 4.241±0.9 pixels
- Foci of necrotic fiber (necrotic area) (Mdx mice; [2]): 2890 ± 803 µm²
- Gr1+ cells in the muscle (Mdx mice; [2]): 4±2.4 cells per section
- Number of cycling satellite cells vs placebo (Mdx mice; [2]): decreased
- Number of regenerating foci vs placebo (Mdx mice; [2]): decreased
- Number of vessels (Mdx mice; [2]): 1459±327 vessels per mm^2
- Number of vessels (vessels; fluoxetine 18 mg/kg I.P, 3 weeks, Flk1GFP/+ mouse): 1103±110.2 vessels per mm^2
- Number of vessels (vessels; fluoxetine 18 mg/kg I.P, 6 weeks, Flk1GFP/+ mouse): 1384±175.3 vessels per mm^2
- Number of vessels (vessels; fluoxetine P.O 6 weeks and PBS in osmotic pump, Flk1GFP/+ mice): 1949±576 vessels per mm^2
- CD31+ cells on cryo-sectioned TA (vessels; fluoxetine P.O, 6 weeks, C57Bl/6 mice): 2260±361 CD31+ cells per mm^2
- Number of vessels (vessels; fluoxetine P.O, 6 weeks, Flk1GFP/+ mouse): 1256±62.2 vessels per mm^2
